In patent publication US9085557B2, “Quinolylpiperazino substituted thiolactone compounds and process for the preparation thereof” (Council of Scientific and Industrial Research, priority 2010, dated 2015):
Values after ≈ are worked out from the molar mass of the structure shown.

system: M. tuberculosis H37Rv (ATCC 27294); assay: MIC determination by broth dilution against M. tuberculosis H37Rv; assay type: cell-based, Mycobacterium tuberculosis; details: M. tuberculosis H37Rv, broth dilution, 3 weeks at 37° C., read visually (no turbidity)

SMILES	MIC [µg/mL]
CC1=C(OCCCCCCCCCCCCN2CCCN(c3ccnc4cc(C(F)(F)F)ccc34)CC2)C(C)SC1=O (stereo not shown) [Compound 5f, 3,5-dimethyl-4-[(12-4-[7-(trifluoromethyl)-4-quinolyl]-1,4-diazepan-1-yldodecyl)oxy]-5H-thiophen-2-one]	8 (≈ 13.2 µM)
CC1=C(OCCCCCCCCCN2CCCN(c3ccnc4cc(C(F)(F)F)ccc34)CC2)C(C)SC1=O (stereo not shown) [Compound 5d, 3,5-dimethyl-4-[(9-4-[7-(trifluoromethyl)-4-quinolyl]-1,4-diazepan-1-ylnonyl)oxy]-5H-thiophen-2-one]	16 (≈ 28.4 µM)
CC1=C(OCCCCCCCCN2CCN(c3ccnc4cc(C(F)(F)F)ccc34)CC2)C(C)SC1=O (stereo not shown) [Compound 3c, 3,5-dimethyl-4-[(8-4-[7-(trifluoromethyl)-4-quinolyl]piperazinooctyl)oxy]-5H-thiophen-2-one]	16 (≈ 29.9 µM)
CC1=C(OCCCCCCN2CCN(c3ccnc4cc(C(F)(F)F)ccc34)CC2)C(C)SC1=O (stereo not shown) [Compound 3b, 3,5-dimethyl-4-[(6-4-[7-(trifluoromethyl)-4-quinolyl]piperazinohexyl)oxy]-5H-thiophen-2-one]	16 (≈ 31.5 µM)
CC1=C(OCCCCCCCCCCN2CCN(c3ccnc4cc(C(F)(F)F)ccc34)CC2)C(C)SC1=O (stereo not shown) [Compound 3e, 3,5-dimethyl-4-[(10-4-[7-(trifluoromethyl)-4-quinolyl]piperazinodecyl)oxy]-5H-thiophen-2-one]	16 (≈ 28.4 µM)
CC1=C(OCCCCCN2CCN(c3ccnc4cc(C(F)(F)F)ccc34)CC2)C(C)SC1=O (stereo not shown) [Compound 3a, 3,5-dimethyl-4-[(5-4-[7-(trifluoromethyl)-4-quinolyl]piperazinopentyl)oxy]-5H-thiophen-2-one]	16 (≈ 32.4 µM)
CC1=C(OCCCCCCN2CCCN(c3ccnc4cc(C(F)(F)F)ccc34)CC2)C(C)SC1=O (stereo not shown) [Compound 5b, 3,5-dimethyl-4-[(6-4-[7-(trifluoromethyl)-4-quinolyl]-1,4-diazepan-1-ylhexyl)oxy]-5H-thiophen-2-one]	16 (≈ 30.7 µM)
C=C/C(C)=C/[C@@]1(C)SC(=O)C(C)=C1O [Thiolactomycin, reference compound]	25 (≈ 119 µM)
CC1=C(OCCCCCCCCCCN2CCCN(c3ccnc4cc(C(F)(F)F)ccc34)CC2)C(C)SC1=O (stereo not shown) [Compound 5e, 3,5-dimethyl-4-[(10-4-[7-(trifluoromethyl)-4-quinolyl]-1,4-diazepan-1-yldecyl)oxy]-5H-thiophen-2-one]	8 (≈ 13.8 µM)
CC1=C(OCCCCCCCCCN2CCN(c3ccnc4cc(C(F)(F)F)ccc34)CC2)C(C)SC1=O (stereo not shown) [Compound 3d, 3,5-dimethyl-4-[(9-4-[7-(trifluoromethyl)-4-quinolyl]piperazinononyl)oxy]-5H-thiophen-2-one]	16 (≈ 29.1 µM)
CC1=C(OCCCCCN2CCCN(c3ccnc4cc(C(F)(F)F)ccc34)CC2)C(C)SC1=O (stereo not shown) [Compound 5a, 3,5-dimethyl-4-[(5-4-[7-(trifluoromethyl)-4-quinolyl]-1,4-diazepan-1-ylpentyl)oxy]-5H-thiophen-2-one]	16 (≈ 31.5 µM)
CC1=C(OCCCCCCCCN2CCCN(c3ccnc4cc(C(F)(F)F)ccc34)CC2)C(C)SC1=O (stereo not shown) [Compound 5c, 3,5-dimethyl-4-[(8-4-[7-(trifluoromethyl)-4-quinolyl]-1,4-diazepan-1-yloctyl)oxy]-5H-thiophen-2-one]	16 (≈ 29.1 µM)

same assay, conditions: Mycobacterium tuberculosis, 504 h; M. tuberculosis H37Rv, broth dilution, 3 weeks at 37° C., read visually (no turbidity); read-out: MIC

SMILES	MIC [µg/mL]
CC1=C(OCCCCCN2CCCN(c3ccnc4cc(Cl)ccc34)CC2)C(C)SC1=O (stereo not shown) [Compound 6a, 3,5-dimethyl-4-(5-[4-(7-chloro-4-quinolyl)-1,4-diazepan-1-yl]pentyloxy)-5H-thiophen-2-one]	16 (≈ 33.8 µM)
CC1=C(OCCCCCCCCN2CCCN(c3ccnc4cc(Cl)ccc34)CC2)C(C)SC1=O (stereo not shown) [Compound 6c, 3,5-dimethyl-4-(8-[4-(7-chloro-4-quinolyl)-1,4-diazepan-1-yl]octyloxy)-5H-thiophen-2-one]	16 (≈ 31 µM)
CC1=C(OCCCCCCCCCN2CCN(c3ccnc4cc(Cl)ccc34)CC2)C(C)SC1=O (stereo not shown) [Compound 4d, 3,5-dimethyl-4-(9-[4-(7-chloro-4-quinolyl)piperazino]nonyloxy)-5H-thiophen-2-one]	8 (≈ 15.5 µM)
CC1=C(OCCCCCCCCCCCCN2CCCN(c3ccnc4cc(Cl)ccc34)CC2)C(C)SC1=O (stereo not shown) [Compound 6f, 3,5-dimethyl-4-(12-[4-(7-chloro-4-quinolyl)-1,4-diazepan-1-yl]dodecyloxy)-5H-thiophen-2-one]	4 (≈ 6.99 µM)
CC1=C(OCCCCCN2CCN(c3ccnc4cc(Cl)ccc34)CC2)C(C)SC1=O (stereo not shown) [Compound 4a, 3,5-dimethyl-4-(5-[4-(7-chloro-4-quinolyl)piperazino]pentyloxy)-5H-thiophen-2-one]	16 (≈ 34.8 µM)
C=C/C(C)=C/[C@@]1(C)SC(=O)C(C)=C1O [Thiolactomycin, reference compound]	25 (≈ 119 µM)
CC1=C(OCCCCCCCCCCCCN2CCN(c3ccnc4cc(Cl)ccc34)CC2)C(C)SC1=O (stereo not shown) [Compound 4f, 3,5-dimethyl-4-(12-[4-(7-chloro-4-quinolyl)piperazino]dodecyloxy)-5H-thiophen-2-one]	8 (≈ 14.3 µM)
CC1=C(OCCCCCCN2CCCN(c3ccnc4cc(Cl)ccc34)CC2)C(C)SC1=O (stereo not shown) [Compound 6b, 3,5-dimethyl-4-(6-[4-(7-chloro-4-quinolyl)-1,4-diazepan-1-yl]hexyloxy)-5H-thiophen-2-one]	8 (≈ 16.4 µM)
CC1=C(OCCCCCCCCCCN2CCCN(c3ccnc4cc(Cl)ccc34)CC2)C(C)SC1=O (stereo not shown) [Compound 6e, 3,5-dimethyl-4-(10-[4-(7-chloro-4-quinolyl)-1,4-diazepan-1-yl]decyloxy)-5H-thiophen-2-one]	16 (≈ 29.4 µM)
CC1=C(OCCCCCCCCN2CCN(c3ccnc4cc(Cl)ccc34)CC2)C(C)SC1=O (stereo not shown) [Compound 4c, 3,5-dimethyl-4-(8-[4-(7-chloro-4-quinolyl)piperazino]octyloxy)-5H-thiophen-2-one]	8 (≈ 15.9 µM)
CC1=C(OCCCCCCCCCN2CCCN(c3ccnc4cc(Cl)ccc34)CC2)C(C)SC1=O (stereo not shown) [Compound 6d, 3,5-dimethyl-4-(9-[4-(7-chloro-4-quinolyl)-1,4-diazepan-1-yl]nonyloxy)-5H-thiophen-2-one]	8 (≈ 15.1 µM)
NNC(=O)c1ccncc1 [Isoniazid, reference compound]	0.5 (≈ 3.65 µM)
CC1=C(OCCCCCCCCCCN2CCN(c3ccnc4cc(Cl)ccc34)CC2)C(C)SC1=O (stereo not shown) [Compound 4e, 3,5-dimethyl-4-(10-[4-(7-chloro-4-quinolyl)piperazino]decyloxy)-5H-thiophen-2-one]	8 (≈ 15.1 µM)
CC1=C(OCCCCCCN2CCN(c3ccnc4cc(Cl)ccc34)CC2)C(C)SC1=O (stereo not shown) [Compound 4b, 3,5-dimethyl-4-(6-[4-(7-chloro-4-quinolyl)piperazino]hexyloxy)-5H-thiophen-2-one]	16 (≈ 33.8 µM)

system: M. tuberculosis XDR-1 (XDR- strain); assay: microbe, parasite or virus in culture; assay type: cell-based, Mycobacterium tuberculosis; details: Mycobacterium tuberculosis, 504 h

SMILES	MIC [µg/mL]
C=C/C(C)=C/[C@@]1(C)SC(=O)C(C)=C1O [Thiolactomycin, reference compound]	25 (≈ 119 µM)
NNC(=O)c1ccncc1 [Isoniazid, reference compound]	0.5 (≈ 3.65 µM)

system: M. tuberculosis -617 (MDR- strain); assay: microbe, parasite or virus in culture; assay type: cell-based, Mycobacterium tuberculosis; details: Mycobacterium tuberculosis, 504 h

SMILES	MIC [µg/mL]
C=C/C(C)=C/[C@@]1(C)SC(=O)C(C)=C1O [Thiolactomycin, reference compound]	25 (≈ 119 µM)
NNC(=O)c1ccncc1 [Isoniazid, reference compound]	128 (≈ 933 µM)

system: M. tuberculosis H37Rv; assay: In vivo efficacy in murine model of M. tuberculosis H37Rv infection; set-up: species or system mice (BALB/c); details: BALB/c mice, intranasal infection, treatment from 1 week post infection, PO once daily for 4 weeks; RIF 20 mg/kg, 3f 25 mg/kg
Description: The Compound 3f used in this study ([…]). The compound 3f was tested in vivo at 25 mg/kg. Rifampicin at 20 mg/kg was also tested as positive control. For in vivo studies compound and rifampicin was dissolved in pure DMSO and formulation was prepared 50% PEG in water for oral administration. The final concentration of DMSO was less than 0.1% v/v.
The institutional animal Ethics committee of the Indian Institute of Integrative Medicine (CSIR, Jammu) approved all experimental protocols with animals and the use of animals. The animals were bred and maintained under standard husbandry conditions; viz. humidity, temperature (25±2° C.). 8-week-old female (BALB/c) mice 20-22 gm by weight were used for the efficacy studies. Animals were allowed 1 week of acclimation before intake into experimental studies. Feed and water were given ad libitum.
Infection of M. tuberculosis:
M. tuberculosis (H37Rv) for infection was grown by the culturing of bacteria from Lowenstein-Jensen slant in Middlebrooke 7H9 medium on a rotary shaker for 10 days at 37° C. […] The mice were sacrificed after week post infection (early control), and bacterial numbers in the lungs were determined by macerating the organs (lung) and plating serial tenfold serial dilution on Middlebrook 7H10 agar plates in triplicates. […]
Eight infected mice were sacrificed from the control group 7 day after the infection (before the initiation of treatment) to obtain the initial CFU load of M. tuberculosis H37Rv at the initiation of treatment. […] Viable bacteria were quantitated by plating 10-fold serial dilutions in duplicates on Middlebrook, 7H10 agar supplemented with 10% OADC (oleic acid albumin dextrose catalase, Becton Dickinson, Sparks, Md.) and incubated at 37° C. in 5% CO2 for 4-6 weeks. CFU per organ sample was counted and expressed as log10 CFU per organ. CFU during in-vivo studies were determined on Middlebrook 7H10 plates supplement with 10% OADC containing Vancomycin 10 μg/ml, Amphoterecin 10 μg/ml, Nalidaxic acid 25 μg/ml. […]

SMILES	Log10 CFU/left Lung (mean ± SD) [Log10 CFU/left Lung]
CO[C@H]1/C=C/O[C@@]2(C)Oc3c(C)c(O)c4c(O)c(c(/C=N/N5CCN(C)CC5)c(O)c4c3C2=O)NC(=O)/C(C)=C\C=C\[C@H](C)[C@H](O)[C@@H](C)[C@@H](O)[C@@H](C)[C@H](OC(C)=O)[C@@H]1C [RIF, Rifampicin, reference compound]	2.0 ± 0.41
